Numbered stars: 1 amine (or outer) side, 2 acyl side, 3 side chain; on linkers, the order of the positions; unused ones are H or OH. Bridge positions count the residues as written; N and C are the ends. Square brackets hold non-standard residues; d marks the D form. Peptide text beside a SMILES is read from it. * marks the point of attachment. ξ: configuration not given here. Bip = N[C@@H](Cc1ccc(-c2ccccc2)cc1)C(=O)O; X14 = N[C@H](CN*)C(=O)NCCCCCCCCCCC(=O)O; Phe(3-Me) = Cc1cccc(C[C@H](N)C(=O)O)c1; 1Nal = N[C@@H](Cc1cccc2ccccc12)C(=O)O; NMeR = CN[C@@H](CCCNC(=N)N)C(=O)O; Val(3-F) = CC(C)(F)[C@H](N)C(=O)O; X6 = O=C(Cc1ccc(CN[*:1])cc1)[*:2]; hArg = N=C(N)NCCCC[C@H](N)C(=O)O; 4Pal = N[C@@H](Cc1ccncc1)C(=O)O; Cha = N[C@@H](CC1CCCCC1)C(=O)O; Cit = NC(=O)NCCC[C@H](N)C(=O)O; aThr = C[C@H](O)[C@H](N)C(=O)O; Thr(3ξ) = CC(O)[C@H](N)C(=O)O; Carboxymethyl = O=C(O)C*; Orn = NCCC[C@H](N)C(=O)O; Aun = NCCCCCCCCCCC(=O)O; Dab = NCC[C@H](N)C(=O)O; Dap = NC[C@H](N)C(=O)O; AEEA = NCCOCCOCC(=O)O
biological target: T1, PD-1/PD-L1 interaction (PE-labeled human PD-L1-Ig binding to Jurkat cell line over-expressing human PD-1) (Homo sapiens, UniProt Q15116); assay: Jurkat-PD-1 Cell Binding High-Content Screening Assay (CBA); assay type: cell-based; conditions: Jurkat cell line over-expressing human PD-1; PE-labeled PD-L1-Ig 20 nM final; read-out: Jurkat hPD1-PDL1 IC50
T1 construct: expressed in transfected cells; host or cells: Jurkat
Procedure, shortened: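 Jurkat cells stably over-expressing human PD-1 were seeded in DMEM with 10% fetal calf serum and pre-incubated with compound for 2 h at 37° C. PE-labeled human PD-L1-Ig was then added at 20 nM final for 1 hour, after which cells were fixed with paraformaldehyde, Hoechst-stained and imaged by high-content microscopy.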

T1 sequence (Q15116 25-288): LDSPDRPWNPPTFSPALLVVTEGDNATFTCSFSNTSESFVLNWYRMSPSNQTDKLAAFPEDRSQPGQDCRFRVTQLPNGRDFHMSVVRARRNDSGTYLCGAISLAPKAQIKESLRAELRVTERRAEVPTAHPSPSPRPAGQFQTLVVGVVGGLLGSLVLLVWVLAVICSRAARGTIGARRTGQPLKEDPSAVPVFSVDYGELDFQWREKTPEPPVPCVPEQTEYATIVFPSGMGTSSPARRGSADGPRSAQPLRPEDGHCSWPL

Row | Compound | IC50 [µM]
1 | Cc1cccc(C[C@@H]2NC(=O)[C@H](CC(=O)O)NC(=O)[C@H](Cc3ccc(OCC(=O)O)cc3)NC(=O)[C@H](CCCNC(=N)N)N(C)C(=O)CSC[C@@H](C(=O)N[C@@H](CCN)C(=O)NCCCCCCCCCCC(=O)O)NC(=O)[C@H](C(C)O)NC(=O)[C@H](C(C)C)NC(=O)[C@H](CC3CCCCC3)NC(=O)[C@H](CCN)NC(=O)[C@@H](CC(C)C)NC(=O)[C@H](CCCN)NC(=O)[C@H](CCCNC(N)=O)NC(=O)[C@H](Cc3ccc(-c4ccccc4)cc3)NC(=O)[C@H](C(C)C)NC2=O)c1 (stereo partly drawn) [Compound 3562] ({CH2CO}-[NMeR]Y(Carboxymethyl)D[Phe(3-Me)]V[Bip][Cit][Orn][dL][Dab][Cha]V[Thr(3ξ)]C[Dab][Aun]-OH; thioether N-14) | 0.0284
2 | CC(C)C[C@H]1NC(=O)[C@H](CCCN)NC(=O)[C@H](C(C)C)NC(=O)[C@H](Cc2ccc(-c3ccccc3)cc2)NC(=O)[C@H](C(C)C)NC(=O)[C@H](Cc2c[nH]c3ccccc23)NC(=O)[C@H](CC(=O)O)NC(=O)[C@H](Cc2ccc(OCC(=O)O)cc2)NC(=O)[C@H](CCCCNC(=N)N)NC(=O)CSC[C@@H](C(=O)N[C@@H](C)C(=O)NCCOCCOCC(=O)N[C@@H](CCN)C(=O)NCCCCCCCCCCC(=O)O)NC(=O)[C@H](C(C)O)NC(=O)[C@H](C(C)C)NC(=O)[C@H](CC2CCCCC2)NC(=O)[C@H](CCN)NC1=O (stereo partly drawn) [Compound 3028] ({CH2CO}-[hArg]Y(Carboxymethyl)DWV[Bip]V[Orn][dL][Dab][Cha]V[Thr(3ξ)]CA[AEEA][Dab][Aun]-OH; thioether N-14) | 0.0164
3 | Cc1cccc(C[C@@H]2NC(=O)[C@H](CC(=O)O)NC(=O)[C@H](Cc3ccc(OCC(=O)O)cc3)NC(=O)[C@H](CN)NC(=O)CSC[C@@H](C(=O)N[C@@H](CCN)C(=O)NCCCCCCCCCCC(=O)O)NC(=O)[C@@H](CO)NC(=O)[C@H](C(C)C)NC(=O)[C@H](CC3CCCCC3)NC(=O)[C@H](CCN)NC(=O)[C@@H](CC(C)C)NC(=O)[C@H](CCCN)NC(=O)[C@H](CCCNC(N)=O)NC(=O)[C@H](Cc3ccc(-c4ccccc4)cc3)NC(=O)[C@H](C(C)C)NC2=O)c1 [Compound 2000] ({CH2CO}-[Dap]Y(Carboxymethyl)D[Phe(3-Me)]V[Bip][Cit][Orn][dL][Dab][Cha]V[dS]C[Dab][Aun]-OH; thioether N-14) | 0.0143
4 | Cc1cccc(C[C@@H]2NC(=O)[C@H](CC(=O)O)NC(=O)[C@H](Cc3ccc(OCC(=O)O)cc3)NC(=O)[C@H](CN)NC(=O)CSC[C@@H](C(=O)NC[C@@H](N)C(=O)NCCCCCCCCCCC(=O)O)NC(=O)[C@H]([C@@H](C)O)NC(=O)[C@H](C(C)C)NC(=O)[C@H](CC3CCCCC3)NC(=O)[C@H](CCN)NC(=O)[C@@H](CC(C)C)NC(=O)[C@H](CCCN)NC(=O)[C@H](CCCNC(N)=O)NC(=O)[C@H](Cc3ccc(-c4ccccc4)cc3)NC(=O)[C@H](C(C)C)NC2=O)c1 [Compound 2622] ({CH2CO}-[Dap]Y(Carboxymethyl)D[Phe(3-Me)]V[Bip][Cit][Orn][dL][Dab][Cha]VTC-X14; thioether N-14) | 0.0306
5 | Cc1cccc(C[C@@H]2NC(=O)[C@H](CC(=O)O)NC(=O)[C@H](Cc3ccc(OCC(=O)O)cc3)NC(=O)[C@H](CCCCNC(=N)N)NC(=O)CSC[C@@H](C(=O)NCCOCCOCC(=O)N[C@@H](CCCCN)C(=O)NCCCCCCCCCCC(=O)O)NC(=O)[C@H]([C@H](C)O)NC(=O)[C@H](C(C)C)NC(=O)[C@H](CC3CCCCC3)NC(=O)[C@H](CC(N)=O)NC(=O)[C@@H](CC(C)C)NC(=O)[C@H](CCCN)NC(=O)[C@H](C(C)C)NC(=O)[C@H](Cc3ccc(-c4ccccc4)cc3)NC(=O)[C@H](C(C)C)NC2=O)c1 [Compound 3162] ({CH2CO}-[hArg]Y(Carboxymethyl)D[Phe(3-Me)]V[Bip]V[Orn][dL]N[Cha]V[aThr]C[AEEA]K[Aun]-OH; thioether N-14) | 0.0263

Other lines, results leading:

Row | IC50 [µM] | Compound
6 | 0.033 | CC[C@H](C)[C@@H]1NC(=O)[C@H](Cc2ccc(-c3ccccc3)cc2)NC(=O)[C@H](C(C)C)NC(=O)[C@H](Cc2c[nH]c3ccccc23)NC(=O)[C@H](CC(=O)O)NC(=O)[C@H](Cc2ccc(OCC(=O)O)cc2)NC(=O)[C@H](Cc2ccncc2)NC(=O)CSC[C@@H](C(=O)N[C@@H](CCCN)C(=O)NCCOCCOCC(=O)NCc2ccc(CC(=O)NCCCCCCCCCCC(=O)O)cc2)NC(=O)[C@H](CN)NC(=O)[C@H](C(C)C)NC(=O)[C@H](CC(C)C)NC(=O)[C@H](CCN)NC(=O)[C@@H](CC(C)C)NC(=O)[C@H](CCCN)NC1=O [Compound 2014] ({CH2CO}-[4Pal]Y(Carboxymethyl)DWV[Bip]I[Orn][dL][Dab]LV[Dap]C[Orn][AEEA][X6][Aun]-OH; thioether N-14)
7 | 0.0434 | CC(C)C[C@H]1NC(=O)[C@H](CCCN)NC(=O)[C@H](Cc2ccc(O)cc2)NC(=O)[C@H](Cc2ccc(-c3ccccc3)cc2)NC(=O)[C@H](Cc2ccc(OCC(=O)O)cc2)NC(=O)[C@H](Cc2cccc3ccccc23)NC(=O)[C@H](CC(=O)O)NC(=O)[C@H](Cc2ccc(OCC(=O)O)cc2)NC(=O)[C@H](CN)NC(=O)CSC[C@@H](C(=O)N[C@@H](CCN)C(=O)NCCOCCOCC(=O)NCCCCCCCCCCC(=O)O)NC(=O)[C@H](CCCN)NC(=O)[C@H](C(C)C)NC(=O)[C@H](CC2CCCCC2)NC(=O)[C@H](CCN)NC1=O [Compound 1305] ({CH2CO}-[Dap]Y(Carboxymethyl)D[1Nal]Y(Carboxymethyl)[Bip]Y[Orn][dL][Dab][Cha]V[Orn]C[Dab][AEEA][Aun]-OH; thioether N-14)
8 | 0.0083 | Cc1cccc(C[C@@H]2NC(=O)[C@H](CC(=O)O)NC(=O)[C@H](Cc3ccc(OCC(=O)O)cc3)NC(=O)[C@H](CCCNC(=N)N)NC(=O)CSC[C@@H](C(=O)N[C@@H](CCN)C(=O)NCCCCCCCCCCC(=O)O)NC(=O)[C@H](CO)NC(=O)[C@H](C(C)(C)F)NC(=O)[C@H](CC3CCCCC3)NC(=O)[C@H](CCN)NC(=O)[C@@H](CC(C)C)NC(=O)[C@H](CCCN)NC(=O)[C@H](Cc3ccc(OCC(=O)O)cc3)NC(=O)[C@H](Cc3ccc(-c4ccccc4)cc3)NC(=O)[C@H](Cc3ccc(O)cc3)NC2=O)c1 [Compound 2121] ({CH2CO}-RY(Carboxymethyl)D[Phe(3-Me)]Y[Bip]Y(Carboxymethyl)[Orn][dL][Dab][Cha][Val(3-F)]SC[Dab][Aun]-OH; thioether N-14)
9 | 0.0095 | Cc1cccc(C[C@@H]2NC(=O)[C@H](CC(=O)O)NC(=O)[C@H](Cc3ccc(OCC(=O)O)cc3)NC(=O)[C@H](CC(N)=O)NC(=O)CSC[C@@H](C(=O)N[C@@H](CCN)C(=O)NCCCCCCCCCCC(=O)O)NC(=O)[C@H](CCC(=O)O)NC(=O)[C@H](C(C)C)NC(=O)[C@H](CC3CCCCC3)NC(=O)[C@H](CCN)NC(=O)[C@@H](CC(C)C)NC(=O)[C@H](CCCN)NC(=O)[C@H](Cc3ccc(O)cc3)NC(=O)[C@H](Cc3ccc(-c4ccccc4)cc3)NC(=O)[C@H](C(C)C)NC2=O)c1 [Compound 3379] ({CH2CO}-NY(Carboxymethyl)D[Phe(3-Me)]V[Bip]Y[Orn][dL][Dab][Cha]VEC[Dab][Aun]-OH; thioether N-14)
